A word on the viability, T/C: it is the result in the treated group divided by that in the control group, in per cent.
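Also: spheroids exposed to drugs for seven days before readout.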

The first experiment relates to 843126-344-R-J1-PDC complex spheroid viability. The experiment is described as follows: Anticancer human tumor 843126-344-R-J1-PDC patient-derived melanoma cell line growth inhibition [POLQ]. As to conditions: second compound 0.316 µM; first compound 0.316 µM; active compounds read low. A digest of the protocol:
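Growth inhibition in 3D: complex spheroids (tumor PDC, HUVEC, MSC) treated with POLQ inhibitor combinations; where Cmax unknown, highest tested concentration 10 microM, except SN-38 at 1 microM.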
As to `C=CCn1c(=O)c2cnc(Nc3ccc(N4CCN(C)CC4)cc3)nc2n1-c1cccc(C(C)(C)O)n1` + Nc1ccc(C#CCN(C(=O)Cc2ncc(C(F)(F)F)cc2C(F)(F)F)c2ccc(F)cc2)nn1, the viability, T/C is 93.6%.
Take `CCc1c2c(nc3ccc(O)cc13)-c1cc3c(c(=O)n1C2)COC(=O)[C@]3(O)CC` + Nc1ccc(C#CCN(C(=O)Cc2ncc(C(F)(F)F)cc2C(F)(F)F)c2ccc(F)cc2)nn1: the viability, T/C was 63.3%.
On the same count and under the same terms, the figure for `CNCc1ccc(-c2[nH]c3cc(F)cc4c3c2CCNC4=O)cc1` + Nc1ccc(C#CCN(C(=O)Cc2ncc(C(F)(F)F)cc2C(F)(F)F)c2ccc(F)cc2)nn1 is 97.3%; for `O=C(c1cc(Cc2n[nH]c(=O)c3ccccc23)ccc1F)N1CCN(C(=O)C2CC2)CC1` + Nc1ccc(C#CCN(C(=O)Cc2ncc(C(F)(F)F)cc2C(F)(F)F)c2ccc(F)cc2)nn1 it is 84%.

Still in this experiment, the particulars now being: second compound 0.316 µM; first compound 1 µM; active compounds read low.
`C=CCn1c(=O)c2cnc(Nc3ccc(N4CCN(C)CC4)cc3)nc2n1-c1cccc(C(C)(C)O)n1` + Nc1ccc(C#CCN(C(=O)Cc2ncc(C(F)(F)F)cc2C(F)(F)F)c2ccc(F)cc2)nn1: the viability, T/C was 72%.
Turning to `CCc1c2c(nc3ccc(O)cc13)-c1cc3c(c(=O)n1C2)COC(=O)[C@]3(O)CC` + Nc1ccc(C#CCN(C(=O)Cc2ncc(C(F)(F)F)cc2C(F)(F)F)c2ccc(F)cc2)nn1, the viability, T/C was 48.5%.
For the compound `CNCc1ccc(-c2[nH]c3cc(F)cc4c3c2CCNC4=O)cc1` + Nc1ccc(C#CCN(C(=O)Cc2ncc(C(F)(F)F)cc2C(F)(F)F)c2ccc(F)cc2)nn1, the viability, T/C is 103%.
Still for that read-out and setting: the figure for `O=C(c1cc(Cc2n[nH]c(=O)c3ccccc23)ccc1F)N1CCN(C(=O)C2CC2)CC1` + Nc1ccc(C#CCN(C(=O)Cc2ncc(C(F)(F)F)cc2C(F)(F)F)c2ccc(F)cc2)nn1 is 84.1%.

The same experiment, now with this note: second compound 0.316 µM; first compound 3.16 µM; active compounds read low.
Turning to `CNCc1ccc(-c2[nH]c3cc(F)cc4c3c2CCNC4=O)cc1` + Nc1ccc(C#CCN(C(=O)Cc2ncc(C(F)(F)F)cc2C(F)(F)F)c2ccc(F)cc2)nn1, the viability, T/C is 94.4%.
With `O=C(c1cc(Cc2n[nH]c(=O)c3ccccc23)ccc1F)N1CCN(C(=O)C2CC2)CC1` + Nc1ccc(C#CCN(C(=O)Cc2ncc(C(F)(F)F)cc2C(F)(F)F)c2ccc(F)cc2)nn1, the viability, T/C is 90.7%.

The experiment is the same for the next values; noted with them: second compound 0.316 µM; first compound 10 µM; active compounds read low.
As to `CNCc1ccc(-c2[nH]c3cc(F)cc4c3c2CCNC4=O)cc1` + Nc1ccc(C#CCN(C(=O)Cc2ncc(C(F)(F)F)cc2C(F)(F)F)c2ccc(F)cc2)nn1, the viability, T/C is 84.3%.
Turning to `O=C(c1cc(Cc2n[nH]c(=O)c3ccccc23)ccc1F)N1CCN(C(=O)C2CC2)CC1` + Nc1ccc(C#CCN(C(=O)Cc2ncc(C(F)(F)F)cc2C(F)(F)F)c2ccc(F)cc2)nn1, the viability, T/C is 80.2%.

Staying with this experiment, now noted: second compound 1 µM; first compound 0.00316 µM; active compounds read low.
`C=CCn1c(=O)c2cnc(Nc3ccc(N4CCN(C)CC4)cc3)nc2n1-c1cccc(C(C)(C)O)n1` + Nc1ccc(C#CCN(C(=O)Cc2ncc(C(F)(F)F)cc2C(F)(F)F)c2ccc(F)cc2)nn1: the viability, T/C is 106%.
For `CCc1c2c(nc3ccc(O)cc13)-c1cc3c(c(=O)n1C2)COC(=O)[C@]3(O)CC` + Nc1ccc(C#CCN(C(=O)Cc2ncc(C(F)(F)F)cc2C(F)(F)F)c2ccc(F)cc2)nn1, the viability, T/C is 75.3%.

Staying with this experiment, now noted: second compound 1 µM; first compound 0.01 µM; active compounds read low.
As for `C=CCn1c(=O)c2cnc(Nc3ccc(N4CCN(C)CC4)cc3)nc2n1-c1cccc(C(C)(C)O)n1` + Nc1ccc(C#CCN(C(=O)Cc2ncc(C(F)(F)F)cc2C(F)(F)F)c2ccc(F)cc2)nn1, the viability, T/C was 80.8%.
For the compound `CCc1c2c(nc3ccc(O)cc13)-c1cc3c(c(=O)n1C2)COC(=O)[C@]3(O)CC` + Nc1ccc(C#CCN(C(=O)Cc2ncc(C(F)(F)F)cc2C(F)(F)F)c2ccc(F)cc2)nn1, the viability, T/C is 46.9%.

The same experiment, now with this note: second compound 1 µM; first compound 0.0316 µM; active compounds read low.
With `C=CCn1c(=O)c2cnc(Nc3ccc(N4CCN(C)CC4)cc3)nc2n1-c1cccc(C(C)(C)O)n1` + Nc1ccc(C#CCN(C(=O)Cc2ncc(C(F)(F)F)cc2C(F)(F)F)c2ccc(F)cc2)nn1, the viability, T/C was 87.7%.
In the case of `CCc1c2c(nc3ccc(O)cc13)-c1cc3c(c(=O)n1C2)COC(=O)[C@]3(O)CC` + Nc1ccc(C#CCN(C(=O)Cc2ncc(C(F)(F)F)cc2C(F)(F)F)c2ccc(F)cc2)nn1, the viability, T/C was 61.3%.
Still for that read-out and setting: the figure for `CNCc1ccc(-c2[nH]c3cc(F)cc4c3c2CCNC4=O)cc1` + Nc1ccc(C#CCN(C(=O)Cc2ncc(C(F)(F)F)cc2C(F)(F)F)c2ccc(F)cc2)nn1 is 103%; for `O=C(c1cc(Cc2n[nH]c(=O)c3ccccc23)ccc1F)N1CCN(C(=O)C2CC2)CC1` + Nc1ccc(C#CCN(C(=O)Cc2ncc(C(F)(F)F)cc2C(F)(F)F)c2ccc(F)cc2)nn1 it is 93.1%.

The same experiment, now with this note: second compound 1 µM; first compound 0.1 µM; active compounds read low.
Turning to `C=CCn1c(=O)c2cnc(Nc3ccc(N4CCN(C)CC4)cc3)nc2n1-c1cccc(C(C)(C)O)n1` + Nc1ccc(C#CCN(C(=O)Cc2ncc(C(F)(F)F)cc2C(F)(F)F)c2ccc(F)cc2)nn1, the viability, T/C is 90.4%.
On to `CCc1c2c(nc3ccc(O)cc13)-c1cc3c(c(=O)n1C2)COC(=O)[C@]3(O)CC` + Nc1ccc(C#CCN(C(=O)Cc2ncc(C(F)(F)F)cc2C(F)(F)F)c2ccc(F)cc2)nn1, for which the viability, T/C is 62.8%.
For the compound `CNCc1ccc(-c2[nH]c3cc(F)cc4c3c2CCNC4=O)cc1` + Nc1ccc(C#CCN(C(=O)Cc2ncc(C(F)(F)F)cc2C(F)(F)F)c2ccc(F)cc2)nn1, the viability, T/C was 103%.
The same measure, in the same setting: the figure for `O=C(c1cc(Cc2n[nH]c(=O)c3ccccc23)ccc1F)N1CCN(C(=O)C2CC2)CC1` + Nc1ccc(C#CCN(C(=O)Cc2ncc(C(F)(F)F)cc2C(F)(F)F)c2ccc(F)cc2)nn1 is 93.9%.

Still in this experiment, the particulars now being: second compound 1 µM; first compound 0.316 µM; active compounds read low.
Take `C=CCn1c(=O)c2cnc(Nc3ccc(N4CCN(C)CC4)cc3)nc2n1-c1cccc(C(C)(C)O)n1` + Nc1ccc(C#CCN(C(=O)Cc2ncc(C(F)(F)F)cc2C(F)(F)F)c2ccc(F)cc2)nn1: the viability, T/C was 85.4%.
Same read-out and setting: the figure for `CCc1c2c(nc3ccc(O)cc13)-c1cc3c(c(=O)n1C2)COC(=O)[C@]3(O)CC` + Nc1ccc(C#CCN(C(=O)Cc2ncc(C(F)(F)F)cc2C(F)(F)F)c2ccc(F)cc2)nn1 is 66.5%.
`CNCc1ccc(-c2[nH]c3cc(F)cc4c3c2CCNC4=O)cc1` + Nc1ccc(C#CCN(C(=O)Cc2ncc(C(F)(F)F)cc2C(F)(F)F)c2ccc(F)cc2)nn1: the viability, T/C was 95.9%.
In the case of `O=C(c1cc(Cc2n[nH]c(=O)c3ccccc23)ccc1F)N1CCN(C(=O)C2CC2)CC1` + Nc1ccc(C#CCN(C(=O)Cc2ncc(C(F)(F)F)cc2C(F)(F)F)c2ccc(F)cc2)nn1, the viability, T/C is 84.3%.

The same experiment, now with this note: second compound 1 µM; first compound 1 µM; active compounds read low.
Regarding `C=CCn1c(=O)c2cnc(Nc3ccc(N4CCN(C)CC4)cc3)nc2n1-c1cccc(C(C)(C)O)n1` + Nc1ccc(C#CCN(C(=O)Cc2ncc(C(F)(F)F)cc2C(F)(F)F)c2ccc(F)cc2)nn1, the viability, T/C was 86.4%.
`CCc1c2c(nc3ccc(O)cc13)-c1cc3c(c(=O)n1C2)COC(=O)[C@]3(O)CC` + Nc1ccc(C#CCN(C(=O)Cc2ncc(C(F)(F)F)cc2C(F)(F)F)c2ccc(F)cc2)nn1: the viability, T/C is 46.3%.
For `CNCc1ccc(-c2[nH]c3cc(F)cc4c3c2CCNC4=O)cc1` + Nc1ccc(C#CCN(C(=O)Cc2ncc(C(F)(F)F)cc2C(F)(F)F)c2ccc(F)cc2)nn1, the viability, T/C is 117%.
Turning to `O=C(c1cc(Cc2n[nH]c(=O)c3ccccc23)ccc1F)N1CCN(C(=O)C2CC2)CC1` + Nc1ccc(C#CCN(C(=O)Cc2ncc(C(F)(F)F)cc2C(F)(F)F)c2ccc(F)cc2)nn1, the viability, T/C was 88.9%.

Staying with this experiment, now noted: second compound 1 µM; first compound 3.16 µM; active compounds read low.
In the case of `CNCc1ccc(-c2[nH]c3cc(F)cc4c3c2CCNC4=O)cc1` + Nc1ccc(C#CCN(C(=O)Cc2ncc(C(F)(F)F)cc2C(F)(F)F)c2ccc(F)cc2)nn1, the viability, T/C is 102%.
Still for that read-out and setting: the figure for `O=C(c1cc(Cc2n[nH]c(=O)c3ccccc23)ccc1F)N1CCN(C(=O)C2CC2)CC1` + Nc1ccc(C#CCN(C(=O)Cc2ncc(C(F)(F)F)cc2C(F)(F)F)c2ccc(F)cc2)nn1 is 84.2%.

The same experiment, now with this note: second compound 1 µM; first compound 10 µM; active compounds read low.
With `CNCc1ccc(-c2[nH]c3cc(F)cc4c3c2CCNC4=O)cc1` + Nc1ccc(C#CCN(C(=O)Cc2ncc(C(F)(F)F)cc2C(F)(F)F)c2ccc(F)cc2)nn1, the viability, T/C is 86.3%.
On to `O=C(c1cc(Cc2n[nH]c(=O)c3ccccc23)ccc1F)N1CCN(C(=O)C2CC2)CC1` + Nc1ccc(C#CCN(C(=O)Cc2ncc(C(F)(F)F)cc2C(F)(F)F)c2ccc(F)cc2)nn1, for which the viability, T/C was 76.8%.

Still in this experiment, the particulars now being: second compound 3.16 µM; first compound 0.00316 µM; active compounds read low.
On to `C=CCn1c(=O)c2cnc(Nc3ccc(N4CCN(C)CC4)cc3)nc2n1-c1cccc(C(C)(C)O)n1` + Nc1ccc(C#CCN(C(=O)Cc2ncc(C(F)(F)F)cc2C(F)(F)F)c2ccc(F)cc2)nn1, for which the viability, T/C is 91.2%.
For `CCc1c2c(nc3ccc(O)cc13)-c1cc3c(c(=O)n1C2)COC(=O)[C@]3(O)CC` + Nc1ccc(C#CCN(C(=O)Cc2ncc(C(F)(F)F)cc2C(F)(F)F)c2ccc(F)cc2)nn1, the viability, T/C was 70.3%.

Still in this experiment, the particulars now being: second compound 3.16 µM; first compound 0.01 µM; active compounds read low.
For `C=CCn1c(=O)c2cnc(Nc3ccc(N4CCN(C)CC4)cc3)nc2n1-c1cccc(C(C)(C)O)n1` + Nc1ccc(C#CCN(C(=O)Cc2ncc(C(F)(F)F)cc2C(F)(F)F)c2ccc(F)cc2)nn1, the viability, T/C was 84.2%.
Take `CCc1c2c(nc3ccc(O)cc13)-c1cc3c(c(=O)n1C2)COC(=O)[C@]3(O)CC` + Nc1ccc(C#CCN(C(=O)Cc2ncc(C(F)(F)F)cc2C(F)(F)F)c2ccc(F)cc2)nn1: the viability, T/C is 64.5%.

Staying with this experiment, now noted: second compound 3.16 µM; first compound 0.0316 µM; active compounds read low.
In the case of `C=CCn1c(=O)c2cnc(Nc3ccc(N4CCN(C)CC4)cc3)nc2n1-c1cccc(C(C)(C)O)n1` + Nc1ccc(C#CCN(C(=O)Cc2ncc(C(F)(F)F)cc2C(F)(F)F)c2ccc(F)cc2)nn1, the viability, T/C is 92.5%.
Still for that read-out and setting: the figure for `CCc1c2c(nc3ccc(O)cc13)-c1cc3c(c(=O)n1C2)COC(=O)[C@]3(O)CC` + Nc1ccc(C#CCN(C(=O)Cc2ncc(C(F)(F)F)cc2C(F)(F)F)c2ccc(F)cc2)nn1 is 52.7%.

These data come from PubChem BioAssay AID1963837 (Molecular Pharmacology Branch, DTP, NCI, 2024).
